Source: US10487117B2, “Antimicrobial peptide for nosocomial infections” (priority 2015, dated 2019)
Several values for one entry are separate records, joined by “and”; a condition that tells them apart may be missing. Equal values may be shown once. Residues, ends and D or L forms follow the SMILES beside them.

Assays:
[1] = test system: planktonic P. aeruginosa; assay type: cell-based, Pseudomonas aeruginosa; details: planktonic, 4 h
Method: The microbial cell viability was then assayed using the BacTiter-Glo™ luminescent kit. […] No cell reduction was detected for the peptide GL-13 even for the maximum concentration assayed (50 μM).
(§1) Bacterial viability was assayed using the BacTiter-Glo™ microbial cell viability kit. Briefly, protein/peptides were dissolved in 10 mM sodium phosphate, 0.1M buffer, pH 7.5, serially diluted from 50 to 0.1 μM and tested in a 96-well microtiter plate containing P. aeruginosa planktonic (OD600˜0.2) or 24 h formed biofilm for 4 h at 37° C. Fifty microliters of BacTiter-Glo™ reagent was added to each well according to the manufacturer's instructions and incubated at room temperature for 15 min. Luminescence was read on a Victor3 plate reader with a 3-s integration time. Fifty percent (ED50) and total inhibitory concentrations were calculated by fitting the data to a dose-response curve.

[2] = test system: planktonic P. aeruginosa; test: Minimum agglutination concentration (MAC) assay; assay type: cell-based, Pseudomonas aeruginosa; details: 1 h at room temperature, mean ± SEM
Method: Bacterial agglutination of RNase 3 is important for the antimicrobial activity of the protein. Therefore, the peptide capability to agglutinate P. aeruginosa cells was assayed by the minimum agglutination concentration assay (MAC) (Table 3).
Bacterial cells were grown in LB at 37° C. to an OD600=0.2, centrifuged at 5000×g for 2 min and resuspended in 10 mM Tris-HCl buffer, 0.1 M NaCl, pH 7.5. An aliquot of 100 μl of the bacterial suspension was treated with increasing protein/peptide concentrations (from 0.01 to 50 μM) and incubated at room temperature for 1 h. The aggregation behavior was observed by visual inspection and the agglutinating activity is expressed as the minimum agglutinating concentration of the sample tested, as previously described (Torrent M. et al. 2012).

[3] = test system: planktonic P. aeruginosa; test: SYTOX Green membrane permeabilization assay, planktonic; assay type: cell-based, Pseudomonas aeruginosa; details: 10% Triton X-100 as maximum reference
Method: Further insight into the membrane-permeabilizing effect of the selected AMPs against P. aeruginosa was evaluated by the Sytox Green assay. Local membrane disturbances allow the cell uptake of the fluorescent Sytox Green dye that subsequently stains the cell nucleic acids; the fluorescence increase is registered to monitor the cell membrane permeabilization. Therefore, the half permeabilization action (ED50) was measured, and the total permeabilization activity expressed as a percentage (Table 5). […] On the other hand, WY-12 and CA-M required a 6- to 7-fold greater concentration than RNase 3 to produce half of their permeabilizing effect.
(§2) Membrane permeabilization was followed using the method SYTOX Green Fluorescence membrane permeabilization assay. In the planktonic assay, bacterial cells were grown at 37° C. to an OD600=0.2, centrifuged at 5000×g for 5 min, and resuspended in 1×PBS to an OD600=0.2. An aliquot of 200 μl was then transferred to a microtiter plate. For biofilm assay, 24 h formed P. aeruginosa biofilm in a 96-well microtiter plate were washed three times with sterile PBS. SYTOX Green was added to a final concentration of 1 μM and incubated 15 min in darkness. Changes in the fluorescence were continuously recorded after addition of a serially diluted protein/peptides from 50 to 0.1 μM in a Victor3 plate reader. The peptide concentration required to achieve half of total and total membrane permeabilization achieved after 40 min was estimated from nonlinear regression analysis as previously described (Pulido D. et al. Antimicrob Agents Chemother 2013). A maximum reference value was taken for Triton X-100 at 10%.

[4] = test system: pre-established P. aeruginosa biofilm; test: Biofilm eradication assay, crystal violet staining; assay type: cell-based, Pseudomonas aeruginosa
Method: Following, the biofilm eradication activity was determined (FIG. 1 and Table 6). […] Moreover, the biofilm eradication activity of all the tested reference peptides was well above the maximum concentration tested (50 μM), except for RN3(5-17P22-36) which was able to eradicate the biofilm close to 50 μM.
(§3) Biofilm formation assay was modified from the previously described protocol (Huedo P. et al. 2014). Briefly, overnight cultures of P. aeruginosa were centrifuged at 5000×g for 5 min, washed and adjusted to an OD600=0.1 in tryptic soy medium (TSB). Two hundred microliters of the bacterial suspension were dispensed in each well of a polystyrene 96-well microtiter plate (Greiner Bio-one, France). The plate was incubated at 37° C. on an orbital shaker (30 rpm). The media was exchanged with fresh pre-warmed TSB after 4 h, in order to remove the non-attached bacteria. After 24 h incubation, the formation of biofilm was then evaluated using the crystal violet staining technique (Stepanovic S. et al. 2000). Briefly, the plates were washed three times with PBS, fixed at 60° C. for 1 h, and stained for 15 min with 200 μl of 0.1% crystal violet. After the dye was discarded, plates were rinsed in PBS and allowed to dry for 30 min at 37° C. Crystal violet was dissolved in 250 μl of 95% ethanol for 15 min, and the OD570 of the extracted dye was measured using a Victor3 plate reader (Perkin-Elmer, Waltham, Mass.).
Biofilms were grown as above. Twenty-four hour formed P. aeruginosa biofilm was washed three times with sterile PBS, and rinsed with 10 mM sodium phosphate buffer pH 7.5. Each well was treated with increasing protein/peptide concentrations (from 0.01 to 50 μM) and incubated at 37° C. for 4 h. The biofilm eradication was then evaluated using the crystal violet staining technique (Stepanovic S. et al. 2000). The ability of the antimicrobial peptides to disperse and reduce the biofilm mass of preformed biofilms was calculated. The peptide concentration required to achieve total preformed biofilm eradication after 4 h incubation time was estimated. A maximum reference value was taken for Triton X-100 at 10%. The minimum biofilm eradication concentration (MBEC), defined as the protein/peptide concentration where the 99.9% of the biofilm mass is eradicated was estimated.

[5] = Biofilm cell mortality, BacTiter-Glo luminescent assay; assay type: cell-based, Pseudomonas aeruginosa; details: 24 h formed biofilm; 4 h at 37° C.; 10% Triton X-100 as maximum reference; N.D. = not detected at 50 μM; read-out: Biofilm cell mortality (%max)
Method: as §1
As a first approach, the biofilm cell viability was monitored using the BacTiter-Glo™ luminescent assay. Therefore, the antimicrobial action of the studied AMPs was determined on already established P. aeruginosa biolfilms (FIG. 1 and Table 6). […] However, for all the active peptides, the concentrations needed to produce an equivalent effect in biofilms were between 2 to 10 times higher than in planktonic cultures. […] At the same time, we applied the crystal violet technique to assess the peptide ability to disperse pre-established P. aeruginosa biofilms.
as §3

[6] = test system: established P. aeruginosa biofilms; test: DiSC3(5) membrane depolarization assay on biofilm; assay type: cell-based, Pseudomonas aeruginosa; details: maximum percentage at final incubation time, 10% Triton X-100 reference
Method: Membrane depolarization was followed using the method described earlier (Torrent M. et al. 2008). Briefly, bacterial cells were grown at 37° C. to an OD600=0.2, centrifuged at 5000×g for 7 min, washed with 5 mM Hepes at pH 7.2 containing 20 mM glucose, and resuspended in 5 mM Hepes-KOH, 20 mM glucose, and 100 mM KCl at pH 7.2 to an OD600=0.05 and 200 μl were transferred to a microtiter plate for planktonic assays. For biofilm assay, 24 h formed P. aeruginosa biofilm in a 96-well microtiter plate were washed three times with sterile PBS. Afterwards P. aeruginosa biofilms were washed with 5 mM Hepes at pH 7.2 containing 20 mM glucose, and rinsed in 5 mM Hepes-KOH, 20 mM glucose, and 100 mM KCl at pH 7.2. In both cases, DiSC3(5) was added to a final concentration of 0.4 μM and changes in the fluorescence were continuously recorded after addition of peptides at 10 μM in a Victor3 plate reader. A maximum reference value for total depolarization is calculated for Triton X-100 at 10%. Alternatively, changes in the fluorescence were continuously recorded after addition of a serially diluted protein/peptides from 50 to 0.1 μM. The peptide concentration required to achieve half of total and total membrane depolarization after 40 min incubation time was estimated from nonlinear regression analysis as previously described (Torrent M. et al. 2010)
(§4) Thereupon, the antimicrobial mechanism of action of the RNase 3 derived peptide on P. aeruginosa biofilms was further characterized with the depolarization and permeabilization assays. As applied for the P. aeruginosa planktonic culture, the fluorescent DisC3(5) assay was also used here in order to monitor the depolarization activity of the studied protein and peptides against established biofilms. Therefore, we have measured the half depolarization action (ED50), and the total depolarization activity expressed as a percentage (Table 7). […] Similar results were obtained for the Sytox Green permeabilization assay, where the total permeabilization effect was hindered for all the AMPs tested, and between two to ten times higher concentrations were required to achieve half of the biofilm cell permeabilizing effect in comparison to the planktonic cells.

[7] = test system: established P. aeruginosa biofilms; test: SYTOX Green membrane permeabilization assay on biofilm; assay type: cell-based, Pseudomonas aeruginosa; details: maximum percentage at final incubation time, 10% Triton X-100 reference
Method: as §2, §4

[8] = test system: biofilm-producing microorganism; test: Antimicrobial and antibiofilm activities of peptides from the design process; assay type: cell-based; details: peptide from the design process
Source text: Furthermore, even though the peptide has been designed with the RNAse 3 sequence as starting point, the peptide has surprising advantages in respect of the RNase 3 due to the specific deletion and selection of the amino acids conforming the peptide amino acid. […] This is the case of the peptide ECP(7-13)(32-36) with sequence SEQ ID NO: 7.

Molecule | IC50 [1] | MAC (minimum agglutinating activity) [2] | Permeabilization %max [3] | Biofilm eradication (%max) ([4]; 24 h formed biofilm, 4 h at 37° C., 10% Triton X-100 as maximum reference, listed as the peptide of the invention) | biofilm eradication concentration (MBEC) ([4]; total eradication of preformed biofilm, 4 h, max tested 50 μM) | mortality [5] | Depolarization Mean % ± SEM [6] | Permeabilization Mean % ± SEM [7] | antimicrobial and antibiofilm activities [8]
CC[C@H](C)[C@H](NC(=O)[C@H](C)NC(=O)[C@H](CCCNC(=N)N)NC(=O)[C@H](CCSC)NC(=O)[C@H](C)NC(=O)[C@@H](NC(=O)[C@@H](NC(=O)[C@H](CCCNC(=N)N)NC(=O)[C@@H]1CCCN1C(=O)[C@H](CO)NC(=O)[C@@H](NC(=O)[C@H](Cc1c[nH]cn1)NC(=O)[C@H](CCC(N)=O)NC(=O)[C@@H](NC(=O)[C@H](C)NC(=O)[C@H](Cc1ccccc1)NC(=O)[C@H](Cc1c[nH]c2ccccc12)NC(=O)[C@H](CCC(N)=O)NC(=O)[C@H](C)NC(=O)[C@H](CCCNC(=N)N)NC(=O)[C@@H](NC(=O)[C@H](Cc1ccccc1)NC(=O)[C@@H]1CCCN1C(=O)[C@@H](N)CCCNC(=N)N)[C@@H](C)O)[C@@H](C)CC)[C@@H](C)CC)[C@@H](C)O)[C@@H](C)CC)C(=O)N[C@@H](CC(N)=O)C(=O)N[C@@H](CC(N)=O)C(=O)N[C@@H](Cc1ccc(O)cc1)C(=O)N[C@@H](CCCNC(=N)N)C(=O)N[C@@H](Cc1c[nH]c2ccccc12)C(=O)N[C@@H](CCCNC(=N)N)C(N)=O [RN3(5-17P22-36)] (H-RPFTRAQWFAIQHISPRTIAMRAINNYRWR-NH2; N-terminus assumed) | 1250 ± 100 nM | 1.5 µM and 1.50 ± 0.08 µM | 63.63 ± 1.42% | totally disperse the cell community layer | ~50 µM | 96.4 ± 2.41% | 73.51 ± 1.94% | 64.26 ± 5.44% | 
ECP(7-13)(32-36): design-process peptide with sequence SEQ ID NO: 7, lacking the antimicrobial and antibiofilm activities (RAQWFAINYRWR; peptide ECP(7-13)(32-36)) |  |  |  |  |  |  |  |  | did not display the antimicrobial and antibiofilm activities
